Source: patent US10080366B2, “Agent for increasing sugar content in fruit” (RIKEN, priority 2012, dated 2018)
Where two headings read alike, the source gives them in different places.

What was measured:
[1] = test system: harvested fruit of grape (variety: Barikan); conditions: for Sugar content (%) on date of application (Jun. 2): before application
[2] = test system: fruit of grape (variety: Red Globe)
Protocol: Agents for increasing a sugar content in a fruit (containing Sorbon T-20 as a spreader/sticker at a final concentration of 200 μL/L) diluted with water to have the concentrations of potassium hydrogen carbonate shown in Table 4 were prepared. The mass of fruit of grape (variety: Red Globe) purchased on the market was measured. Then, the prepared agents for increasing a sugar content in a fruit were applied by spraying to the fruit of grape, which was then allowed to stand in an air-conditioned greenhouse (temperature: 25° C.). The mass of the fruit of grape was measured over time (date of application: Mar. 10, 2011). In addition, as a control, the mass of untreated grape was measured on each date of measurement in the same manner. […] Note that the decrease ratio (cumulative, %) represents the percentage (%) of the mass decreased from the date of application to each of the dates of measurement, and the decrease ratio (%/day) represents the average ratio (%) of decrease in mass in a period between each of the dates of measurement and the preceding date of measurement (=(the mass (g) on the preceding date of measurement of each of the dates of measurement−the mass (g) on the date of measurement)/the mass (g) on the preceding date of measurement of the date of measurement/the number of days from the preceding date of measurement of the date of measurement to the date of measurement×100).

[3] = test system: clusters of grape (variety: Crimson); assay: Estimated transpiration ratio of grape clusters (Example 9); type: in vivo; conditions: 10 g/L; 8 days after treatment
Pinot noir = assay: Acceptability of fruit for wine (Example 11); type: in vivo, grape; conditions: Example 1 sample
Text: As in the case where agriculture workers check whether or not a berry can be used for wine, the criteria of the acceptability were based the appearance (appearance associated with mold, rot, or the like, whether or not the fruit juice or fruit pulp was lost, and the like), taste (whether or not the berry was normal, when eaten, and the like), and odor (whether or not a foreign odor or the like was present). A berry having no problem in terms of any of the appearance, taste, and odor was determined to be acceptable, and a berry having any problem was determined to be not acceptable.

Cherry (Sato Nishiki) = conditions: 5 g/L, three times at intervals of 7 days; 28 days after first application
Text: The water-soaked symptom in cherry is known to be caused by calcium deficiency. In this respect, an investigation was made as to whether or not the degree of occurrence of water-soaked symptom 28 days after the date of the first application was different between untreated cherries and cherries to which an aqueous potassium hydrogen carbonate solution (5 g/L) was applied three times at intervals of 7 days one month before the harvest time. […] The occurrence (%) of water-soaked symptom=the number of cherries in which the water-soaked symptom occurred/the number of cherries tested×100

Tomato = conditions: dilution ratio 100 (10 g/L); 6 days after treatment
Mikan = conditions: dilution ratio 100 (10 g/L); 6 days after treatment
[4] = 10 g/L, 25° C., mass 100 g on date of application

O=C([O-])O.[K+] [Potassium hydrogen carbonate, potassium hydrogen carbonate]
decrease of mass of fruit in 8 days (June 2 to June 10) ([1]; 10 g/L): 27.3%
Sugar content (%) 8 days later, actually measured value ([1]; 10 g/L, 25° C.): 24.0%
Sugar content (%) 8 days later, actually measured value ([1]; 10 g/L, 25° C., listed as potassium hydrogen carbonate): 24%
Mass (g) 6 days later (Jun. 8) [1, 4]: 79.4 g
Mass (g) 8 days later (Jun. 10) [1, 4]: 72.7 g
Sugar content (%) 8 days later, calculated value ([1]; 10 g/L, calculated from decrease in mass): 24.8%
Sugar content (%) on date of application (Jun. 2) [1]: 18.0%
Sugar content (%) on date of application (Jun. 2) ([1]; listed as potassium hydrogen carbonate): 18%
ratio of decrease in mass compared with untreated ([2]; 5 g/L and 10 g/L): higher ratios of decrease in mass than the untreated fruit
Mass ([2]; 5 g/L, Mar. 10 (date of application)): 240.4 g
Decrease ratio (%/day) ([2]; 5 g/L, Mar. 11): 2.6 %/day
Decrease ratio (cumulative %) ([2]; 5 g/L, Mar. 11): 2.6%
Mass ([2]; 5 g/L, Mar. 11): 234.1 g
Decrease ratio (%/day) ([2]; 5 g/L, Mar. 14): 2.5 %/day
Decrease ratio (cumulative %) ([2]; 5 g/L, Mar. 14): 9.9%
Mass ([2]; 5 g/L, Mar. 14): 216.7 g
Decrease ratio (%/day) ([2]; 5 g/L, Mar. 15): 2.5 %/day
Decrease ratio (cumulative %) ([2]; 5 g/L, Mar. 15): 12.1%
Mass ([2]; 5 g/L, Mar. 15): 211.4 g
Decrease ratio (%/day) ([2]; 5 g/L, Mar. 16): 2.2 %/day
Decrease ratio (cumulative %) ([2]; 5 g/L, Mar. 16): 14.0%
Mass ([2]; 5 g/L, Mar. 16): 206.7 g
Decrease ratio (%/day) ([2]; 5 g/L, Mar. 18): 2.1 %/day
Decrease ratio (cumulative %) ([2]; 5 g/L, Mar. 18): 17.7%
Mass ([2]; 5 g/L, Mar. 18): 197.8 g
Decrease ratio (%/day) ([2]; 5 g/L, Mar. 22): 2.0 %/day
Decrease ratio (cumulative %) ([2]; 5 g/L, Mar. 22): 24.1%
Mass ([2]; 5 g/L, Mar. 22): 182.4 g
Decrease ratio (%/day) ([2]; 5 g/L, Mar. 23): 2.8 %/day
Decrease ratio (cumulative %) ([2]; 5 g/L, Mar. 23): 26.3%
Mass ([2]; 5 g/L, Mar. 23): 177.3 g
Decrease ratio (%/day) ([2]; 5 g/L, Mar. 24): 2.2 %/day
Decrease ratio (cumulative %) ([2]; 5 g/L, Mar. 24): 27.8%
Mass ([2]; 5 g/L, Mar. 24): 173.5 g
Decrease ratio (%/day) ([2]; 5 g/L, Mar. 30): 2.3 %/day
Decrease ratio (cumulative %) ([2]; 5 g/L, Mar. 30): 37.8%
Mass ([2]; 5 g/L, Mar. 30): 149.4 g
Mass ([2]; 10 g/L, Mar. 10 (date of application)): 200.5 g
Decrease ratio (%/day) ([2]; 10 g/L, Mar. 11): 2.9 %/day
Decrease ratio (cumulative %) ([2]; 10 g/L, Mar. 11): 2.9%
Mass ([2]; 10 g/L, Mar. 11): 194.8 g
Decrease ratio (%/day) ([2]; 10 g/L, Mar. 14): 3 %/day
Decrease ratio (cumulative %) ([2]; 10 g/L, Mar. 14): 11.6%
Mass ([2]; 10 g/L, Mar. 14): 177.2 g
Decrease ratio (%/day) ([2]; 10 g/L, Mar. 15): 3.3 %/day
Decrease ratio (cumulative %) ([2]; 10 g/L, Mar. 15): 14.5%
Mass ([2]; 10 g/L, Mar. 15): 171.4 g
Decrease ratio (%/day) ([2]; 10 g/L, Mar. 16): 2.9 %/day
Decrease ratio (cumulative %) ([2]; 10 g/L, Mar. 16): 17.0%
Mass ([2]; 10 g/L, Mar. 16): 166.5 g
Decrease ratio (%/day) ([2]; 10 g/L, Mar. 18): 2.7 %/day
Decrease ratio (cumulative %) ([2]; 10 g/L, Mar. 18): 21.5%
Mass ([2]; 10 g/L, Mar. 18): 157.4 g
Decrease ratio (%/day) ([2]; 10 g/L, Mar. 22): 2.5 %/day
Decrease ratio (cumulative %) ([2]; 10 g/L, Mar. 22): 29.5%
Mass ([2]; 10 g/L, Mar. 22): 141.3 g
Decrease ratio (%/day) ([2]; 10 g/L, Mar. 23): 3.6 %/day
Decrease ratio (cumulative %) ([2]; 10 g/L, Mar. 23): 32.0%
Mass ([2]; 10 g/L, Mar. 23): 136.3 g
Decrease ratio (%/day) ([2]; 10 g/L, Mar. 24): 2.8 %/day
Decrease ratio (cumulative %) ([2]; 10 g/L, Mar. 24): 33.9%
Mass ([2]; 10 g/L, Mar. 24): 132.5 g
Decrease ratio (%/day) ([2]; 10 g/L, Mar. 30): 2.9 %/day
Decrease ratio (cumulative %) ([2]; 10 g/L, Mar. 30): 45.3%
Mass ([2]; 10 g/L, Mar. 30): 109.7 g
Estimated transpiration ratio (%) Average [3]: 31%
Estimated transpiration ratio (%) First [3]: 33%
Estimated transpiration ratio (%) Second [3]: 28%
Acceptable ratio (%) of fruit (Pinot noir; 5 g/L): 75%
Acceptable ratio (%) of fruit (Pinot noir; 10 g/L): 80%
Occurrence (%) of water-soaked symptom (Cherry (Sato Nishiki)): 7%
Ratio (%) of decrease in body weight of fruit (Tomato): 14.8%
Ratio (%) of decrease in body weight of fruit (Mikan): 12.6%
